This is an account of results in PMC11472313, “Development of Fragment-Based Inhibitors of the Bacterial Deacetylase LpxC with Low Nanomolar Activity” (Journal of Medicinal Chemistry, 2024).

Series [1] in a line: metabolic stability in mouse liver S9 fractions. Type of series: in vitro ADME. The note with it: pooled liver S9 fraction, 1 μM compound, 1 mg/mL S9, phase I and II cofactors; for half-life at 1 μM: read-out: metabolic stability in mouse liver S9 fractions t1/2. The procedure:
For the evaluation of combined phase I and phase II metabolic stability, the compound (1 μM) was incubated with 1 mg/mL pooled mouse liver S9 fraction (Xenotech, Kansas City, USA), 2 mM nicotinamide adenine dinucleotide phosphate hydrogen (NADPH), 1 mM UDPGA, 10 mM MgCl2, 5 mM glutathione (GSH), and 0.1 mM 3′-phosphoadenosine 5′-phosphosulfate (PAPS) at 37 °C for 120 min. The metabolic stability of testosterone, verapamil, and ketoconazole were determined in parallel to confirm the enzymatic activity of mouse S9 fractions. The incubation was stopped after defined time points by precipitation of aliquots of S9 enzymes with 2 volumes of cold acetonitrile containing internal standard (150 nM diphenhydramine). Samples were stored on ice until the end of the incubation and the precipitated protein was removed by centrifugation (15 min, 4 °C, 4000g). Concentration of the remaining test compound at the different time points was analyzed by HPLC–MS/MS (TSQ Quantum Access Max, Thermo Fisher, Dreieich, Germany) and used to determine half-life (t1/2).

The nature of series [2]: stability in mouse plasma. In kind it is in vitro ADME. Particulars: 1 μM compound, pooled CD-1 mouse plasma; for half-life at 1 μM: CD-1, mouse, pooled plasma, read-out: mouse plasma stability t1/2. The procedure: To determine stability in mouse plasma, the compound (1 μM) was incubated with pooled CD-1 mouse plasma (Neo Biotech, Nanterre, France). Samples were taken at defined time points by mixing aliquots with 4 volumes of acetonitrile containing internal standard (125 nM diphenhydramine). Samples were stored on ice until the end of the incubation, and the precipitated protein was removed by centrifugation (15 min, 4 °C, 4000g, 2 centrifugation steps). Concentration of the remaining test compound at the different time points was analyzed by HPLC–MS/MS (TSQ Quantum Access MAX, Thermo Fisher, Dreieich, Germany). The plasma stability of procain, propantheline, and diltiazem were determined in parallel to confirm enzymatic activity.

Series [3] is described as follows: plasma protein binding, mouse. In kind it is in vitro ADME. The note with it: for fraction unbound: plasma. The procedure:
The microsomal metabolic stability assay as well as the plasma protein binding assay were conducted as described previously.[78]

The nature of series [4]: log D7.4, HPLC-based method. Type of series: physicochemical. Particulars: pH 7.4, HPLC-based; read-out: logD7.4. How it is done: Log D7.4 was analyzed using an HPLC-based method. The UV retention time of reference compounds with known log D7.4 was determined and plotted toward their log D7.4. Linear regression was used to determine the log D7.4 of unknown compounds. Analysis was performed using a Vanquish Flex HPLC system with a variable wavelength detector (Thermo Fisher, Dreieich, Germany) with the following conditions: EC150/2 NUCLEODUR C18 Pyramid column, […] (Macherey Nagel, Düren, Germany); eluent A: 50 mM NH4OAc pH 7.4, eluent B: acetonitrile, and flow: 0.6 mL/min; gradient elution: (B %): 0–2.5 min: gradient from 0 to 100%, 2.5–3.0 min: 100%, 3.0–3.2 min: gradient from 100 to 0%, 3.2–5.0 min: 0%.

A short description of series [5]: kinetic turbidimetric solubility. In kind it is physicochemical. Particulars: PBS with 1% DMSO, Kinetic solubility (1% DMSO/PBS). The procedure:
The desired compounds were sequentially diluted in DMSO in a 96-well plate. 1.5 μL from each well was transferred into another 96-well plate and mixed with 148.5 μL of PBS. Plates were shaken for 5 min at 600 rpm at room temperature, and the absorbance at 620 nm was measured. Absorbance values were normalized by blank subtraction and plotted using GraphPad Prism 8.4.2 (GraphPad Software, San Diego, CA, USA). Solubility (S) was determined based on the First X value of AUC function using a threshold of 0.005.

Series [6] in a line: MTT-based cytotoxicity assay. In kind it is cell-based. The note with it: human, HepG2 cells. The source says:
An MTT-based assay was employed to evaluate the viability of HepG2 cells after challenge with selected inhibitors and performed as described previously.[77]
A general note: Tetrazolium assays rely on reduction of a dye to a coloured formazan, in cell work by metabolically active cells.

For the next series, the target named is T1, MMP2 (Homo sapiens, UniProt P08253).
T1 construct: purchased AnaSpec (Fremont, CA, USA)
T1 sequence (P08253 110-660): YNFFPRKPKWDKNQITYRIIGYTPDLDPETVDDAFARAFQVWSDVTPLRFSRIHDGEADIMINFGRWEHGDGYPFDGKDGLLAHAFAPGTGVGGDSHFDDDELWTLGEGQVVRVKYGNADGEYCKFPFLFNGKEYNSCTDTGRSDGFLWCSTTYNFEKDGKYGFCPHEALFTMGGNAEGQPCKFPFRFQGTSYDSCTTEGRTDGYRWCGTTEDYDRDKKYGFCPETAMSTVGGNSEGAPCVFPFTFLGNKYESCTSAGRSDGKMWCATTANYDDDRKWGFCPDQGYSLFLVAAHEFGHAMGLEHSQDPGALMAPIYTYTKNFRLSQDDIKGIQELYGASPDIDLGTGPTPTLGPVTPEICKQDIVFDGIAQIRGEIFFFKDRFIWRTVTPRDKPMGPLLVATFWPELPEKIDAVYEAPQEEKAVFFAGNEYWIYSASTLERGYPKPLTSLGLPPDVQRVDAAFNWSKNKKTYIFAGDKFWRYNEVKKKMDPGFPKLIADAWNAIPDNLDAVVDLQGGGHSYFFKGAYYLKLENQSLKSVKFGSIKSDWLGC
The series can be described thus: MMP2 inhibition (SensoLyte 520 Generic MMP Activity Kit). Type of series: biochemical. The note with it: for inhibition at 100 µM: read-out: MMP2 (% inhibition at 100 μM), 100 μM. How it is done:
(§1) Since LpxC and LasB are zinc-dependent enzymes, we investigated potential off-target activity of the three frontrunners on mammalian zinc-dependent enzymes. Our panel comprised three representative matrix-metalloproteases (MMP1–3) and tumor necrosis factor-α converting enzyme (TACE, also known as ADAM17) (Table 6).
(§2) Purification of LasB from P. aeruginosa PA14 supernatant and the subsequent performance of the FRET-based in vitro inhibition assay was performed as described previously.[66] The TACE (ADAM-17) inhibitor screening kit was purchased from Sigma-Aldrich (Saint Louis, MO). MMPs 1–3 along with the SensoLyte 520 Generic MMP Activity Kit Fluorimetric were purchased from AnaSpec (Fremont, CA, USA). The assays were performed according to the guidelines of the respective manufacturer. Fluorescence signals were measured using a CLARIOstar plate reader (BMG Labtech, Ortenberg, Germany).

Another series addresses T2, MMP3 (Homo sapiens, UniProt P08254).
T2 construct: purchased AnaSpec (Fremont, CA, USA)
The series can be described thus: MMP3 inhibition (SensoLyte 520 Generic MMP Activity Kit). In kind it is biochemical. The note with it: read-out: MMP3 (% inhibition at 100 μM). The procedure: as §1, §2

The target in the next series is T3, TACE (ADAM-17) (Homo sapiens, UniProt P78536).
T3 construct: purchased Sigma-Aldrich (Saint Louis, MO)
T3 sequence (P78536 215-824, species assumed): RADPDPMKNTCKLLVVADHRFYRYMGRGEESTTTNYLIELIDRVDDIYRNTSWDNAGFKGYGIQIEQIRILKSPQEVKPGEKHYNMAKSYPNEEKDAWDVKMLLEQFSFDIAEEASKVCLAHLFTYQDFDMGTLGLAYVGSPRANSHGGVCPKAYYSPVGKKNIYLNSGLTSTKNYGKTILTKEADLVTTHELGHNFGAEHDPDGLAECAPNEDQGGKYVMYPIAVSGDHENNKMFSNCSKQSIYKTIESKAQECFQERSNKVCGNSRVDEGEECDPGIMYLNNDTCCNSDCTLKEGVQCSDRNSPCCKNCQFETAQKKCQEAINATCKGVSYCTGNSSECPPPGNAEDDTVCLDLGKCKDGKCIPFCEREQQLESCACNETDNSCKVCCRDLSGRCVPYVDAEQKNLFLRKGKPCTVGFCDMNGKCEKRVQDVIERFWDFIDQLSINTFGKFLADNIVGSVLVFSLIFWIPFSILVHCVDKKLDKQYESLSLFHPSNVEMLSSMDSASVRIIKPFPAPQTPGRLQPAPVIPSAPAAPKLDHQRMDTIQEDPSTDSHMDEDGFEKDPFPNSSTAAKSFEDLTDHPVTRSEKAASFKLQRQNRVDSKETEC
The series can be described thus: TACE (ADAM-17) inhibitor screening kit. Particulars: for inhibition at 20 µM: read-out: TACE (% inhibition at 20 μM). In kind it is biochemical. The procedure: as §1, §2

Converted amounts (≈) assume the structure as drawn.

T2 sequence (P08254 100-477, species assumed): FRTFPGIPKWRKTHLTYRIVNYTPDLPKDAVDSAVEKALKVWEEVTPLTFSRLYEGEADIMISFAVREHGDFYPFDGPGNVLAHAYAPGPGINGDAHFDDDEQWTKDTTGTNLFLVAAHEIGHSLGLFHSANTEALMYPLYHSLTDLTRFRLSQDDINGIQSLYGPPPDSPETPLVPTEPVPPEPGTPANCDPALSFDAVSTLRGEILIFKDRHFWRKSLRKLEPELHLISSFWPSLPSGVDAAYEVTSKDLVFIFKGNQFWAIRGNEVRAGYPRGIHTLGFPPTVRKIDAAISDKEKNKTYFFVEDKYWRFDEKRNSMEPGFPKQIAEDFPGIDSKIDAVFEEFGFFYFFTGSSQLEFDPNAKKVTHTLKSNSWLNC

A word on the microsomal CLint: it is the capacity of the preparation to metabolise the compound, expressed as a volume cleared per time. Broadly, the fraction unbound is free concentration divided by total concentration. A lower fraction unbound goes with extensive binding. One may read the kinetic solubility as the concentration staying in solution when a stock, usually in DMSO, is diluted into the medium. For orientation: IC50 means the concentration that inhibits the measured activity by half. The low end stands for greater potency, the high end for weaker potency. The term inhibition denotes the drop in the measured response relative to a control, in per cent. Molecule `O=C(NC[C@H](OCc1ccc(C#Cc2ccc(CN3CCOCC3)cc2)cc1)C(=O)NO)c1c[nH]c2ccccc12` [(S)-13h] came in with a microsomal CLint at 1 μM in [1] of about 45 µL/min/mg. The half-life at 1 μM in [1] was found to be 15.5 ± 1 min; in [2], 22.9 ± 4.8 min. The fraction unbound in series [3] was 0.0541. Also, the chromatographic logD in series [4] was found to be 3.63. Besides, the kinetic solubility at 5 min in [5] amounted to 53.5 ± 1.9 µM (≈ 29.6 µg/mL). Further, the IC50 in series [6] is 15.1 ± 1.7 µM. Besides, the inhibition at 100 µM on MMP2 was 15 ± 3%; at MMP3 it was under 10%. In addition, the inhibition at 20 µM on TACE (ADAM-17) is under 10%.

Regarding `O=C(NC[C@H](OCc1ccc(C#Cc2ccc(CN3CCOCC3)cc2)cc1)C(=O)NO)c1ccc2[nH]ccc2c1` [(S)-13j], in series [1], the microsomal CLint at 1 μM worked out at 27.6 ± 2.7 µL/min/mg. Besides, the half-life at 1 μM amounted to 25.5 ± 2.7 min in series [1] and 43.1 min in series [2]. Moreover, the “mouse plasma stability t1/2” value in series [2] was found to be 43 ± 13 min. Moreover, the fraction unbound in series [3] was 0.0795. In addition, the chromatographic logD in [4] worked out at 3.33. The molecule also showed a kinetic solubility at 5 min in series [5] of 46 ± 11 µM (≈ 25.4 µg/mL). Besides, the IC50 in [6] was found to be 8.1 ± 1.4 µM. Moreover, at MMP2 (100 μM), the “MMP2 (% inhibition at 100 μM)” value worked out at 47 ± 3%. Moreover, the inhibition at 100 µM is about 50% on MMP2, 16 ± 1% at MMP3 and 38% against TACE (ADAM-17) (100 μM (as printed in text)). The inhibition at 20 µM at TACE (ADAM-17) turned out to be 38 ± 5%.

`O=C(NC[C@H](OCc1ccc(C#Cc2ccc(CN3CCOCC3)cc2)cc1)C(=O)NO)c1cc[nH]n1` [(S)-13l]: in series [1], the microsomal CLint at 1 μM was 10.9 ± 0.9 µL/min/mg and the half-life at 1 μM was over 60 min. For the same molecule, the half-life at 1 μM in series [2] was found to be 24.2 ± 5 min. Moreover, in series [3], the “plasma protein binding mouse” value is 79.42 ± 2.5% and the fraction unbound was over 0.2. The chromatographic logD in series [4] turned out to be 2.43. In addition, the solubility (kinetic) at 5 min in [5] is at least 100 µM. For the same molecule, the IC50 in series [6] stood at 30.2 ± 1.9 µM. At MMP2, the IC50 was 67 µM and the inhibition at 100 µM came out at 65 ± 4%. Also, the “selectivity factor for MMP2” value at MMP2 (MMP2 versus LpxC) amounted to 105. Also, the inhibition at 100 µM on MMP3 was determined as 19 ± 2%. Also, at TACE (ADAM-17), half-maximal inhibition (IC50) required 5.4 µM and the inhibition at 20 µM was found to be 81 ± 2%. Moreover, at TACE (ADAM-17) (TACE versus LpxC), the “selectivity factor for TACE” value came out at 8.4.
